Active and inactive are the calls of the source.
Tests used:
[1] = target: T1, Corticotropin-releasing factor receptor 2/Corticotropin-releasing factor-binding protein (Homo sapiens, UniProt P24387+Q13324); assay: activators of CRF receptor 2 with binding protein – uHTS hits, confirmation (AID 602473); type: functional; settings: read-out: EC50_Mean
T1 sequence (Q13324 whole entry): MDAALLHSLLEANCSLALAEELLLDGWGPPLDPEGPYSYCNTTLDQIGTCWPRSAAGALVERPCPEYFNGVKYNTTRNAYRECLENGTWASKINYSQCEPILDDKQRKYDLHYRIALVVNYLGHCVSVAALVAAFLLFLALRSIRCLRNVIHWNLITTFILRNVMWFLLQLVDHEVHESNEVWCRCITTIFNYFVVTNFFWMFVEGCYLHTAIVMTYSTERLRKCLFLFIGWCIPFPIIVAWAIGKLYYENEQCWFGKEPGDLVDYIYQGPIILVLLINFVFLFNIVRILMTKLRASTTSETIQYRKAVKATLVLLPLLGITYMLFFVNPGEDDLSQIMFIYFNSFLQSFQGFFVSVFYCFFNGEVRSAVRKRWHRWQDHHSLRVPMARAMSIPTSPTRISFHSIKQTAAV
T1 sequence (P24387 whole entry): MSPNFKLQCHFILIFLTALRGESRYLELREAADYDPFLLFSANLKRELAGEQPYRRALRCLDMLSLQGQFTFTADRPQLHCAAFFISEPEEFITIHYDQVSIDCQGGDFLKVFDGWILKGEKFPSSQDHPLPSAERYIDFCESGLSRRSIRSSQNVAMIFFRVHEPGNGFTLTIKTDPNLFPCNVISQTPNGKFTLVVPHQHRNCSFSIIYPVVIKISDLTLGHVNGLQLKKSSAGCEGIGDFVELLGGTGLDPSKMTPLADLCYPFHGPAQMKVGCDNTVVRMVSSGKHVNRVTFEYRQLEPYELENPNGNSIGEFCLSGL

[2] = target: T1, Corticotropin-releasing factor receptor 2/Corticotropin-releasing factor-binding protein; assay: Dose Response confirmation of uHTS hits for small molecule antagonists of the CRF-binding protein and CRF-R2 receptor complex.; type: functional; settings: read-out: IC50_Mean
[3] = blockers of CRF-binding protein–CRF-R2 complex – cell-based, uHTS hits, 384-well, dose response (AID 651639); type: functional, Homo sapiens; settings: read-out: IC50_Mean
[4] = target: T2, COUP transcription factor 2 (Homo sapiens, UniProt P24468); assay: Luminescence-based cell-based high throughput dose response assay to identify inhibitors of COUP-TFII (NR2F2).; type: functional;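 further: HEK293 cells transiently cotransfected with COUP-TFII expression vector and reporter; luciferase reporter luminescence driven by COUP-TFII from the pX2-168 reporter plasmid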
T2 sequence (P24468 whole entry): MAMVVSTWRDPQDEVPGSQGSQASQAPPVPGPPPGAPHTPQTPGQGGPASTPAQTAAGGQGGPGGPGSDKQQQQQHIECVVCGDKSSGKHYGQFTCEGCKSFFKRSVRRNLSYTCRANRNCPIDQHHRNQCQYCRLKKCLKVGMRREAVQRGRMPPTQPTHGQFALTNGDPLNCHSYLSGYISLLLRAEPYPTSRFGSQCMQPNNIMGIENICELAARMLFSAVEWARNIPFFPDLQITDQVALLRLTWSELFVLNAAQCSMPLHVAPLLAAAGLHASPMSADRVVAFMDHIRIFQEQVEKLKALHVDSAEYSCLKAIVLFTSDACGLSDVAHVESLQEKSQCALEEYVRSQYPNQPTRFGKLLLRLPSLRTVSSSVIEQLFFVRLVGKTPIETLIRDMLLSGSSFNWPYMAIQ

[5] = HEK-293T viability loss after treatment – luminescence, T-cell screen hits, cytotoxicity control for TCR NF-kB inhibitor project, dose response (AID 489026); type: functional, cell-based;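 further: cells exposed to compound about 14 hours before the viability readout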
[6] = test system: INS1; assay: INS-1E survival protection against cytokine death – cell-based, luminescence, retest, dose response (AID 449756); type: functional; settings: Rattus norvegicus;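 further: cell death triggered by IL-1 beta plus TNF-alpha plus IFN-gamma mixture; protective hits raise ATP signal compared with cytokine alone wells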
[7] = Counterscreen for inhibitors of Trypanosoma brucei methionyl tRNA synthetase (MetRS): Luminescence-based cell-based high throughput dose response assay to identify compounds that are cytotoxic to Jurkat human T lymphocyte cells.; type: functional
[8] = viability loss in HEK293T cells – cell-based, cherry-picks, cytotoxicity control for HIV Vif inhibitor project, dose response (AID 652208); type: functional
[9] = blockers of bursicon-stimulated LGR2 cAMP reporter – cell-based, HEK293, CRE-luciferase reporter, cherry pick, set 2, dose response (AID 743343); type: functional;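 further: transfected cells were stimulated with diluted bursicon conditioned medium after compound addition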
[10] = viability loss in HEK293 cells – cell-based, plate reader, cherry-picked samples, cytotoxicity control, dose response (AID 743446); type: functional
[11] = blockade of melanocortin 4 receptor signaling – cell-based, plate reader, cherry pick, counter-screen for LGR2 antagonist project, dose response (AID 743444); type: functional;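 further: transfected HEK 293 cells stimulated with alpha-MSH peptide; potency of inhibitors of the alpha-MSH evoked signal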
[12] = A549 cell cytotoxicity, dose response, cytotoxicity control, plate reader, cherry-pick, antagonist series (AID 743412); type: functional, cell-based
[13] = toxicity toward HepG2 liver cells – cell-based, plate reader, cherry-pick, antagonist series, cytotoxicity control, dose response (AID 743416); type: functional
[14] = target: Cytochrome P450 2C9 (Homo sapiens, UniProt P11712)
[15] = target: Cytochrome P450 3A4 (Homo sapiens, UniProt P08684);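 further: CYP3A4 tested as one member of a cytochrome P450 panel screen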
[16] = NIH-3T3 fibroblast cytotoxicity, dose response, cytotoxicity control, cell-based, fluorescence, Alamar Blue, secondary assay (AID 2327); type: functional;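 further: NIH-3T3 mouse fibroblasts cultured with fluconazole at 8 µg/mL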
[17] = target: T3, Long-chain-fatty-acid--AMP ligase FadD28 (Mycobacterium tuberculosis, UniProt P9WQ59); assay: Fluorescence polarization aasay to screen for inhibitors that compete for the binding of FadD28 to a bisubstrate Measured in Biochemical System Using Plate Reader - 2147-01_Inhibitor_Dose_CherryPick_Activity.; type: functional, Mycobacterium tuberculosis H37Rv
T3 sequence (P9WQ59 whole entry): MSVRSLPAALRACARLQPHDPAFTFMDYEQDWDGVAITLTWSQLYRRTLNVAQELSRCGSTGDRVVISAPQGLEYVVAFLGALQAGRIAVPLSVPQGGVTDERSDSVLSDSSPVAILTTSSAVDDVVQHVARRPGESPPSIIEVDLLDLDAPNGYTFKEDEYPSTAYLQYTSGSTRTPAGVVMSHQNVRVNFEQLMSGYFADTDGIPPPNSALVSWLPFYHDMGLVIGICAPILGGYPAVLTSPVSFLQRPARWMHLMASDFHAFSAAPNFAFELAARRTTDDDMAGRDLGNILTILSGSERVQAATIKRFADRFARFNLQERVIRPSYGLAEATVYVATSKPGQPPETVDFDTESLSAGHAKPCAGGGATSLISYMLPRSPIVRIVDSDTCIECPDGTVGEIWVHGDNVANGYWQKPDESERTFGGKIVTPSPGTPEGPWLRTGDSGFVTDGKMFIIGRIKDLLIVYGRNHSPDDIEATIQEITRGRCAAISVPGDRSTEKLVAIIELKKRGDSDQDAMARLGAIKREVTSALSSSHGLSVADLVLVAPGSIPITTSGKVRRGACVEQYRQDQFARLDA

[18] = viability of HCT116 lacking mutant beta-catenin – cell-based, human colon tumor, dose response (AID 1045); type: functional;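 further: HCT116 colon tumor cells with beta catenin knocked out; cells exposed to compound for 60 hours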
[19] = viability of PTEN-deleted HCT116 cells – cell-based, HCT116 PTEN knockout, dose response (AID 1047); type: functional;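 further: HCT116 colon tumor cells with PTEN knocked out; cells exposed to compound for 60 hours before readout; potency for loss of cell viability measured by luminescence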
[20] = viability loss in HeLa cells – cytotoxicity control for MgcRacGAP inhibitor project, dose response (AID 624300); type: functional
[21] = target: T4, Rac GTPase-activating protein 1 (Homo sapiens, UniProt Q9H0H5); assay: blockers of MgcRacGAP-driven Rac1 GTP hydrolysis – biochemical, ADP Hunter fluorescence, primary and confirmatory, confirmation (AID 624330); type: functional
T4 sequence (Q9H0H5 whole entry): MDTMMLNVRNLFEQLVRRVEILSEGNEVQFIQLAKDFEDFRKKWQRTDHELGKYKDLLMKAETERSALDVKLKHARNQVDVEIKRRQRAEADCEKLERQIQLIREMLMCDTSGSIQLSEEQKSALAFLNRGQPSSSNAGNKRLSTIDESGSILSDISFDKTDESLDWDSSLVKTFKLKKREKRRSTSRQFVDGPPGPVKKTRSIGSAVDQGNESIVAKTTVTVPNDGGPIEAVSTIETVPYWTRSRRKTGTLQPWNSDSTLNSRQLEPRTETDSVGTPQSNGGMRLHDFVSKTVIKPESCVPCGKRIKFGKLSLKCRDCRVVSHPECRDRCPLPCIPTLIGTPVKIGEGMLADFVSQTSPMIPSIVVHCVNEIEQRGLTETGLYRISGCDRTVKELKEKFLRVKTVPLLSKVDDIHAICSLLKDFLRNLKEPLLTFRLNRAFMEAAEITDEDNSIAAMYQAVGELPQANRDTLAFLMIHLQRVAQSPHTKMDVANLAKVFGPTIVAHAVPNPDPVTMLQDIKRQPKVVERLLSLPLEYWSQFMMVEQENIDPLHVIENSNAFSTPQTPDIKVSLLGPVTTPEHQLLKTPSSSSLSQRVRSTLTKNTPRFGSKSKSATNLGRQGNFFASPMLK

[22] = fluconazole-exposed Candida albicans growth modulators – fluorescence, retest, confirmation (AID 2467); type: functional, cell-based
[23] = nonselective StAR promoter luciferase inhibitors – cell-based, luminescence, luciferase reporter, counter-screen for LRH-1 inverse agonist project, dose response (AID 651969); type: functional
[24] = target: Steroidogenic factor 1 (Homo sapiens, UniProt Q13285); assay: Counterscreen for inverse agonists of the liver receptor homolog-1 (LRH-1; NR5A2): Luminescence-based cell-based high throughput dose response assay to identify inverse agonists of the Steroidogenic Factor 1 Nuclear Receptor (SF1; NR5A1).; type: functional
[25] = target: Nuclear receptor subfamily 5 group A member 2 (Homo sapiens, UniProt O00482); type: functional, cell-based;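 further: HEK293T cells transfected with LRH-1 and a StAR promoter luciferase reporter; potency for inhibitors that lower LRH-1 driven reporter light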
[26] = non-specific 3'UTR reporter inhibition in Clone20-Shn3RL – cell-based, Renilla luciferase, cherry-picked, counter-screen for Shn3 inhibitor project, dose response (AID 624133); type: functional
[27] = loss of viability in HepG2 cells – cell-based, CellTiter-Glo, cherry-picked, cytotoxicity control for Shn3 inhibitor project, dose response (AID 624134); type: functional
[28] = reduction of Shn3 3'UTR-driven luciferase in osteoblasts – cell-based, Clone20 osteoblasts, firefly luciferase, cherry-picked, dose response (AID 624132); type: functional;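 further: firefly luciferase luminescence from reporter carrying the Shn3 3'UTR in osteoblasts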
[29] = A2780 cell killing – plate reader, dry powder samples, cytotoxicity control, dose response (AID 743046); type: functional, cell-based
[30] = target: Paired box protein Pax-8 (Homo sapiens, UniProt Q06710); assay: PAX8 transcriptional activity inhibition in RMG-I – RMG-I cells, luciferase, cherry-pick, dose response (AID 687027); type: functional, cell-based;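 further: luciferase reporter driven by Pax8 target thyroperoxidase promoter measured by SteadyGlo luminescence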
[31] = OVCAR8 cell viability loss – plate reader, dry powder samples, PAX8 project, dose response (AID 743197); type: functional, cell-based; settings: OVCAR-8

Chain of Steroidogenic factor 1 (Q13285 whole entry): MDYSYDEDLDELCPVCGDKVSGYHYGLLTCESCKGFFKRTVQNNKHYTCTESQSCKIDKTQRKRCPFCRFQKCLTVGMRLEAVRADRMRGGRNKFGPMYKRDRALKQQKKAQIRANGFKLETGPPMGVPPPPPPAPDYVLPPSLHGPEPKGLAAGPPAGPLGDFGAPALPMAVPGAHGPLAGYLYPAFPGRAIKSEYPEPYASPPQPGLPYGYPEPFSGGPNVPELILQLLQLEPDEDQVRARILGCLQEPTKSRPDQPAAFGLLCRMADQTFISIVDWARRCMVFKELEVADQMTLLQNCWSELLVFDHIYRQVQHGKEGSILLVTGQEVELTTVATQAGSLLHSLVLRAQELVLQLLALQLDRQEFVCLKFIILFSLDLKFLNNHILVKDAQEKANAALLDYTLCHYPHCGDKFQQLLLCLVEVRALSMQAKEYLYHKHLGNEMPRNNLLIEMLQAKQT
Chain of Nuclear receptor subfamily 5 group A member 2 (O00482 whole entry): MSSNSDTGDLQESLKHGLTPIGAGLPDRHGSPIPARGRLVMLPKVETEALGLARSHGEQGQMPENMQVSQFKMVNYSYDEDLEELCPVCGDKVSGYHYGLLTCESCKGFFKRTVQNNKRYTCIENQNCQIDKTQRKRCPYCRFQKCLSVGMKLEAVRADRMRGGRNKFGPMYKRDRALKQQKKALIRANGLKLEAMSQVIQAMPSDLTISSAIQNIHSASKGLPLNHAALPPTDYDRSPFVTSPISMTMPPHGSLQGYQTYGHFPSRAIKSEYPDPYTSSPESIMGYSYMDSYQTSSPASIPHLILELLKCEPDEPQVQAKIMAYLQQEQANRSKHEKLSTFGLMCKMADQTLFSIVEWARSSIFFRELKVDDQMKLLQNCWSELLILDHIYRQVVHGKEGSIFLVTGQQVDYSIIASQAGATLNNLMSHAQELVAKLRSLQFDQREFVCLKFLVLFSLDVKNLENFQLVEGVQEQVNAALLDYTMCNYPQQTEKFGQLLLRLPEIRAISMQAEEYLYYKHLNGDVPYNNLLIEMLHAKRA
Chain of Cytochrome P450 2C9 (P11712 whole entry): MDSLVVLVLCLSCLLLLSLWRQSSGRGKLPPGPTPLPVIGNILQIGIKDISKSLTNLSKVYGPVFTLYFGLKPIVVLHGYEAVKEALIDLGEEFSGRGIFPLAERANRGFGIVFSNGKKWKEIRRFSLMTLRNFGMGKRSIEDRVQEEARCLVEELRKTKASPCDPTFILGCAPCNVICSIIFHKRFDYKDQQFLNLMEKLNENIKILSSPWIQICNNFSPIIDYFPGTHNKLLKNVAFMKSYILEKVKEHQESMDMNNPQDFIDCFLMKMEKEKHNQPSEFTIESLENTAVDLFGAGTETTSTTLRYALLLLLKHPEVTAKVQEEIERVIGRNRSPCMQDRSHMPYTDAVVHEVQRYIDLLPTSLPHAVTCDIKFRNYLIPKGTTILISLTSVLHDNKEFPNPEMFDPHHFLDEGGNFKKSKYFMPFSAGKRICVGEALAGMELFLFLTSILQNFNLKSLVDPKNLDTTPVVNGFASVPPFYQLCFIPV
Chain of Paired box protein Pax-8 (Q06710 whole entry): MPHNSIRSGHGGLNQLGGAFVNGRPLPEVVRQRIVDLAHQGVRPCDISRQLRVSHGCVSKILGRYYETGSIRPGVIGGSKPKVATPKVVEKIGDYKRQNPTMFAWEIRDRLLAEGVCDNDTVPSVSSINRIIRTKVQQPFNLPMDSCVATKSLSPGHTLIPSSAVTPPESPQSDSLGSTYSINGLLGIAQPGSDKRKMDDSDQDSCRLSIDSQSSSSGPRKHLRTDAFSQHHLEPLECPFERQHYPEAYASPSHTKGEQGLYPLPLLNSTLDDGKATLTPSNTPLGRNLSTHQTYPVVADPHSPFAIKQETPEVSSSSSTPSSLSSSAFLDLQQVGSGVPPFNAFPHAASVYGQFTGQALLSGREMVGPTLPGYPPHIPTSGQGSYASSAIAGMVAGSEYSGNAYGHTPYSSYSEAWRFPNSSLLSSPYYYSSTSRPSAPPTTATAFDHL
Chain of Cytochrome P450 3A4 (P08684 whole entry): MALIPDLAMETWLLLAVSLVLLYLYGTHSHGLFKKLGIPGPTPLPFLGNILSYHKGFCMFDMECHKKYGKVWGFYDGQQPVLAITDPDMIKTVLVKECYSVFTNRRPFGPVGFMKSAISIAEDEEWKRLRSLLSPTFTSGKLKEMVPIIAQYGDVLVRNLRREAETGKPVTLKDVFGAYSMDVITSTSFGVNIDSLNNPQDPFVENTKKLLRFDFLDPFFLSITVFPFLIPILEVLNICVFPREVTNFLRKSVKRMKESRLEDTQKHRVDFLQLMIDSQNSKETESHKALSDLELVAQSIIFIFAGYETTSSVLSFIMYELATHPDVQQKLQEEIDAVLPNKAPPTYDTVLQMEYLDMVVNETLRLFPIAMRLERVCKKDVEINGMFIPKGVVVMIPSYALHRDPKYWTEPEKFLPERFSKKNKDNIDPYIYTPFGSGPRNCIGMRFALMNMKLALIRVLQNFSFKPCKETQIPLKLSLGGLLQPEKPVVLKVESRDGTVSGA

## COC(=O)c1sc(-c2ccc(C(C)(C)C)cc2)cc1NC(=O)COCC(=O)O
[1]
  EC50: > 53 µM (inactive)
[2]
  IC50: 11 µM (active)
[3]
  IC50: > 20 µM (inactive)

## Cc1nn(C)c(C)c1CN(Cc1nc(CCC(C)C)no1)C(C)C
[4]
  IC50: 4.68 µM (active)
[5]
  IC50: > 80 µM (inactive)
[6]
  AC50: 2.24 µM (active)

## O=C(OCC(=O)c1c[nH]c2ccccc12)c1ccc(OC(F)F)cc1
[7]
  IC50: 83.3 µM (inactive)

## COc1ccc(C=C2CS(=O)(=O)CC(=Cc3ccc(OC)cc3)C2=O)cc1
[8]
  AC50: 4.33 µM (active)

## CC(C)(C)OC(=O)N1CCC(c2cc(O)n3ncc(C(=O)NC4CCCC4)c3n2)CC1
[1]
  EC50: > 53 µM (inactive)
[2]
  IC50: 6.5 µM (active)
[3]
  IC50: 9.87 µM (active)

## C[C@H](CO)N1C[C@H](C)[C@H](CN(C)Cc2ccc(C(F)(F)F)cc2)Oc2ccc(NC(=O)Nc3ccccc3)cc2C1=O
[9]
  AC50: 27.4 µM (active)
[10]
  AC50: > 47 µM (inactive)
[11]
  AC50: 20.2 µM (active)
[12]
  AC50: 7.64 µM (active)
[13]
  AC50: > 47 µM (inactive)

## Cn1c(N/N=C/c2c[nH]c3ccccc23)nc2ccccc21
[14]
  AC50: 28.2 µM (inconclusive)
[15]
  AC50: 20 µM (inconclusive)
[16]
  EC50: > 150 µM (inactive)
[17]
  AC50: 52.1 µM (active)
[18]
  EC50: 2.81 µM (active)
[19]
  EC50: 2.96 µM (active)
[20]
  CC50: 100 µM (active)
[21]
  IC50: 44.4 µM (active)
[22]
  EC50: > 38 µM (not active)

## COc1ccc(N2/C(=C/C(C)=O)NC(=O)c3c(C)cc(C)nc32)cc1
[23]
  IC50: 35.9 µM (inactive)
[24]
  IC50: 5.42 µM (active)
[25]
  IC50: 8.47 µM (active)

## Cc1cc([N+](=O)[O-])ccc1NC(=O)CSc1nnc(C)n1C
[23]
  IC50: 35.8 µM (inactive)
[24]
  IC50: 11.9 µM (inactive)
[25]
  IC50: 11.9 µM (inactive)

## CC(C)c1ccc(NC(=O)Nc2nc(C(N)c3ccccc3)cs2)cc1 (stereo not drawn)
[26]
  AC50: 15.4 µM (active)
[27]
  AC50: 13.5 µM (active)
[9]
  AC50: 25.5 µM (active)
[10]
  AC50: 16 µM (active)
[11]
  AC50: 29 µM (active)
[28]
  AC50: 2.48 µM (active)
[12]
  AC50: 7.84 µM (active)
[13]
  AC50: 8.5 µM (active)

## CCOC(=O)N1CCN(c2c(NCc3ccc(Cl)cc3)c(=O)c2=O)CC1
[8]
  AC50: > 52 µM (inactive)

## COc1cc(/C=N/Nc2nn3cnnc3c3ccccc23)ccc1O
[20]
  CC50: 100 µM (active)
[21]
  IC50: 64.2 µM (active)

## O=C(C[C@@H]1CC[C@H]2[C@@H](COC[C@H](O)CN2C(=O)Nc2ccc(Cl)c(Cl)c2)O1)NCc1ccc(Cl)cc1
[29]
  AC50: 11.9 µM (active)
[30]
  AC50: 13.5 µM (active)
[31]
  AC50: > 70 µM (inactive)

## O=C(Nc1ccccc1C(=O)Nc1nccs1)c1ccccc1
[23]
  IC50: 26.4 µM (inactive)
[24]
  IC50: 9.51 µM (active)
[25]
  IC50: 9.83 µM (active)
